Assay results published in BindingDB's records for patent US20250346592 (Celgene, 2025).

Target: Protein-arginine deiminase type-4 (Homo sapiens, UniProt Q9UM07)
Assay: RFMS2 Assay
Protocol: Final Assay Conditions:Total reaction volume: 25 μlAssay buffer: […] pH 7.4, 200 mM NaCl, 2 mM CaCl2, 5 mM DTT35 nM recombinant human PAD4500 μM TSTGGRQGSHH peptide1.2% DMSOStop solution: 10% formic acidReaction mixtures were incubated at room temperature for 30 minutes. 10 μl each of the reaction mixtures was then mixed with 40 μl of 10% formic acid in a microtiter plate. The plate was frozen at −80° C. before shipping out on dry ice for RapidFire mass spectroscopy analysis.Thawed samples were loaded onto the Rapid Fire 300 system (Agilent) wherein they were first sipped for 250 ms and then loaded onto a Agilent “C” (C18) cartridge using a mobile phase of water containing 0.09% formic acid/0.01% trifluoroacetic acid for 3000 ms desalting flowing at a rate of 1.5 ml/min. Once the samples were loaded and washed, a mobile phase of acetonitrile containing 0.09% formic acid/0.01% trifluoroacetic acid was used to elute the samples directly onto a Sciex API4000 triple quadrupole mass spectrometer for 3000 ms at a flow rate of 1.25 ml/min.

Protein-arginine deiminase type-4, sequence (Q9UM07 whole entry): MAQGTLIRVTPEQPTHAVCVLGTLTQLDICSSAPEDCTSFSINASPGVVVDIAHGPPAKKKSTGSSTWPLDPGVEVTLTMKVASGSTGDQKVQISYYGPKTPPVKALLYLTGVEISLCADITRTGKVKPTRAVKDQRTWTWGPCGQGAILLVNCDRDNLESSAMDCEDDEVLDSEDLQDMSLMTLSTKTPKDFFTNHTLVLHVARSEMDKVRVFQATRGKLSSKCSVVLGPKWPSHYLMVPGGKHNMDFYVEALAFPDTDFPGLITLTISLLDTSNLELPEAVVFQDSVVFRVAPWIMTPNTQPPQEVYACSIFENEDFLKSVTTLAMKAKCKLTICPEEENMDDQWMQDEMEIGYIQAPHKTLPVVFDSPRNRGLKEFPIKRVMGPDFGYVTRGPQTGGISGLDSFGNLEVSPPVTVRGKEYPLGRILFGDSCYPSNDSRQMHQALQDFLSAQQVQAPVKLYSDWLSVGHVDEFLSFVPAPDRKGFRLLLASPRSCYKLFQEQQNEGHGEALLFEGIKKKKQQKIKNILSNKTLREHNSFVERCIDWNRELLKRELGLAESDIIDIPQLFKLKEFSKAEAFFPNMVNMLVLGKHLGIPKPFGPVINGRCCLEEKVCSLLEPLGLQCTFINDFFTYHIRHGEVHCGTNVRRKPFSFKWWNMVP

IC50: > 1000 nM
SMILES: COc1cccc2cc(-c3nc4cc5c(cc4n3C)CCN(C[C@H](N)CF)C5=O)n(CC(=O)N(C)C)c12 [US20250346592, Example 122]
